Patent US10597388B2, “Pyridazinone herbicides” (FMC CORPORATION, priority 2014, dated 2020)

Legend:
Experiment in all cases: Test C greenhouse herbicide test, pre- and postemergence
Format in all cases: in vivo
[1] = test system: waterhemp (common waterhemp, Amaranthus rudis)
Procedure, shortened: (§1)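 Pre- and postemergence greenhouse screen; values are visual control ratings, 0 meaning no effect and 100 complete kill, assigned relative to untreated plants after 13 to 15 d.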

[2] = test system: foxtail, giant (giant foxtail, Setaria faberii)
Procedure, shortened: as §1

[3] = test system: lambsquarters (Chenopodium album)
Procedure, shortened: as §1

[4] = test system: barnyardgrass (Echinochloa crus-galli)
Procedure, shortened: as §1

[5] = test system: pigweed (Amaranthus retroflexus)
Procedure, shortened: as §1

[6] = test system: blackgrass (Alopecurus myosuroides)
Procedure, shortened: as §1

[7] = test system: oilseed rape (Brassica napus)
Procedure, shortened: as §1

[8] = test system: galium (catchweed bedstraw, Galium aparine)
Procedure, shortened: as §1

[9] = test system: wheat (winter wheat, Triticum aestivum)
Procedure, shortened: as §1

[10] = test system: velvetleaf (Abutilon theophrasti)
Procedure, shortened: as §1

[11] = test system: morningglory (Ipomoea coccinea)
Procedure, shortened: as §1

corn (Zea mays) = test system: corn (Zea mays)
Procedure, shortened: as §1

[12] = test system: ragweed (common ragweed, Ambrosia elatior)
Procedure, shortened: as §1

[13] = test system: crabgrass, large (large crabgrass, Digitaria sanguinalis)
Procedure, shortened: as §1

[14] = test system: ryegrass, Italian (Italian ryegrass, Lolium multiflorum)
Procedure, shortened: as §1

[15] = Postemergence, 31 g ai/ha, 0 to 100 scale (0 no effect, 100 complete control)
[16] = Postemergence, 125 g ai/ha, scale 0 to 100, 0 is no effect, 100 is complete control
[17] = Postemergence, 250 g ai/ha, scale 0 to 100, 0 no effect, 100 complete control, 13 to 15 d
[18] = Preemergence, 31 g ai/ha, scale 0 to 100, 0 is no effect, 100 is complete control
[19] = Preemergence, 62 g ai/ha, scale 0 to 100, 0 is no effect, 100 is complete control
[20] = Preemergence, 125 g ai/ha, scale 0 to 100, 0 is no effect, 100 is complete control
[21] = Preemergence, 250 g ai/ha, scale 0 to 100, 0 no effect, 100 complete control
[22] = postemergence, 62 g ai/ha, scale 0 to 100, 0 no effect, 100 complete control

CCc1sc2ccc(C)cc2c1-c1c(O)c(C)nn(C)c1=O [Compound 47]
Waterhemp plant response rating [1, 15]: 90 | Plant response rating, Waterhemp [1, 16]: 100 | Plant response rating, Waterhemp [1, 17]: 100 | Plant response rating, Waterhemp [1, 18]: 100 | Plant response rating, Waterhemp [1, 19]: 98 | Plant response rating, Waterhemp [1, 20]: 100 | Waterhemp plant response rating [1, 21]: 100 | Waterhemp plant response rating [1, 22]: 75 | Foxtail, Giant plant response rating [2, 15]: 50 | Plant response rating, Foxtail, Giant [2, 16]: 75 | Plant response rating, Foxtail, Giant [2, 17]: 85 | Plant response rating, Foxtail, Giant [2, 18]: 15 | Plant response rating, Foxtail, Giant [2, 19]: 50 | Plant response rating, Foxtail, Giant [2, 20]: 85 | Foxtail, Giant plant response rating [2, 21]: 100 | Foxtail, Giant plant response rating [2, 22]: 65 | Lambsquarters plant response rating [3, 15]: 85 | Plant response rating, Lambsquarters [3, 16]: 98 | Plant response rating, Lambsquarters [3, 17]: 85 | Plant response rating, Lambsquarters [3, 18]: 100 | Plant response rating, Lambsquarters [3, 19]: 100 | Plant response rating, Lambsquarters [3, 20]: 100 | Lambsquarters plant response rating [3, 21]: 100 | Lambsquarters plant response rating [3, 22]: 85 | Barnyardgrass plant response rating [4, 15]: 15 | Plant response rating, Barnyardgrass [4, 16]: 85 | Plant response rating, Barnyardgrass [4, 17]: 90 | Plant response rating, Barnyardgrass [4, 18]: 5 | Plant response rating, Barnyardgrass [4, 19]: 20 | Plant response rating, Barnyardgrass [4, 20]: 85 | Barnyardgrass plant response rating [4, 21]: 100 | Barnyardgrass plant response rating [4, 22]: 55 | Pigweed plant response rating [5, 15]: 90 | Plant response rating, Pigweed [5, 16]: 98 | Plant response rating, Pigweed [5, 17]: 98 | Plant response rating, Pigweed [5, 18]: 100 | Plant response rating, Pigweed [5, 19]: 100 | Plant response rating, Pigweed [5, 20]: 100 | Pigweed plant response rating [5, 21]: 100 | Pigweed plant response rating [5, 22]: 90 | Blackgrass plant response rating [6, 15]: 0 | Plant response rating, Blackgrass [6, 16]: 30 | Plant response rating, Blackgrass [6, 17]: 30 | Plant response rating, Blackgrass [6, 18]: 0 | Plant response rating, Blackgrass [6, 19]: 30 | Plant response rating, Blackgrass [6, 20]: 40 | Blackgrass plant response rating [6, 21]: 90 | Blackgrass plant response rating [6, 22]: 20 | Oilseed Rape plant response rating [7, 15]: 0 | Plant response rating, Oilseed Rape [7, 16]: 5 | Plant response rating, Oilseed Rape [7, 17]: 10 | Plant response rating, Oilseed Rape [7, 18]: 0 | Plant response rating, Oilseed Rape [7, 19]: 0 | Plant response rating, Oilseed Rape [7, 20]: 0 | Oilseed Rape plant response rating [7, 21]: 10 | Oilseed Rape plant response rating [7, 22]: 0 | Galium plant response rating [8, 15]: 80 | Plant response rating, Galium [8, 16]: 90 | Plant response rating, Galium [8, 17]: 90 | Plant response rating, Galium [8, 18]: 90 | Plant response rating, Galium [8, 19]: 95 | Plant response rating, Galium [8, 20]: 98 | Galium plant response rating [8, 21]: 98 | Galium plant response rating [8, 22]: 90 | Wheat plant response rating [9, 15]: 0 | Plant response rating, Wheat [9, 16]: 0 | Plant response rating, Wheat [9, 17]: 0 | Plant response rating, Wheat [9, 18]: 0 | Plant response rating, Wheat [9, 19]: 0 | Plant response rating, Wheat [9, 20]: 0 | Wheat plant response rating [9, 21]: 0 | Wheat plant response rating [9, 22]: 0 | Velvetleaf plant response rating [10, 15]: 70 | Plant response rating, Velvetleaf [10, 16]: 95 | Plant response rating, Velvetleaf [10, 17]: 95 | Plant response rating, Velvetleaf [10, 18]: 65 | Plant response rating, Velvetleaf [10, 19]: 90 | Plant response rating, Velvetleaf [10, 20]: 100 | Velvetleaf plant response rating [10, 21]: 100 | Velvetleaf plant response rating [10, 22]: 90 | Morningglory plant response rating [11, 15]: 100 | Plant response rating, Morningglory [11, 16]: 100 | Plant response rating, Morningglory [11, 17]: 100 | Plant response rating, Morningglory [11, 18]: 90 | Plant response rating, Morningglory [11, 19]: 100 | Plant response rating, Morningglory [11, 20]: 100 | Morningglory plant response rating [11, 21]: 95 | Morningglory plant response rating [11, 22]: 100 | Corn plant response rating (corn (Zea mays); [15]): 0 | Plant response rating, Corn (corn (Zea mays); [16]): 10 | Plant response rating, Corn (corn (Zea mays); [17]): 5 | Plant response rating, Corn (corn (Zea mays); [18]): 0 | Plant response rating, Corn (corn (Zea mays); [19]): 0 | Plant response rating, Corn (corn (Zea mays); [20]): 0 | Corn plant response rating (corn (Zea mays); [21]): 5 | Corn plant response rating (corn (Zea mays); [22]): 5 | Ragweed plant response rating [12, 15]: 80 | Plant response rating, Ragweed [12, 16]: 98 | Plant response rating, Ragweed [12, 17]: 100 | Plant response rating, Ragweed [12, 18]: 50 | Plant response rating, Ragweed [12, 19]: 85 | Plant response rating, Ragweed [12, 20]: 98 | Ragweed plant response rating [12, 21]: 100 | Ragweed plant response rating [12, 22]: 98 | Crabgrass, Large plant response rating [13, 15]: 20 | Plant response rating, Crabgrass, Large [13, 16]: 40 | Plant response rating, Crabgrass, Large [13, 17]: 35 | Plant response rating, Crabgrass, Large [13, 18]: 0 | Plant response rating, Crabgrass, Large [13, 19]: 30 | Plant response rating, Crabgrass, Large [13, 20]: 60 | Crabgrass, Large plant response rating [13, 21]: 95 | Crabgrass, Large plant response rating [13, 22]: 30 | Ryegrass, Italian plant response rating [14, 15]: 0 | Plant response rating, Ryegrass, Italian [14, 16]: 25 | Plant response rating, Ryegrass, Italian [14, 17]: 30 | Plant response rating, Ryegrass, Italian [14, 18]: 0 | Plant response rating, Ryegrass, Italian [14, 19]: 20 | Plant response rating, Ryegrass, Italian [14, 20]: 45 | Ryegrass, Italian plant response rating [14, 21]: 50 | Ryegrass, Italian plant response rating [14, 22]: 10
